Tests used:
liver SHP mRNA = test: Liver SHP mRNA expression in mice after administration of compound; format: in vivo, mouse; details: administered per os, 10 mg/kg daily for 3 days
Procedure: (§1) Total RNA was isolated from HepG2 cells or liver tissue using the TRIzol reagent according to the manufacturer's specifications (Invitrogen). One microgram of purified RNA was treated with DNase-I and reverse transcribed with QuantiTect Reverse Transcription Kit (Qiagen). For Real Time PCR, 10 ng template was dissolved in 25 μL containing 200 nmol/L of each primer and 12.5 μL of 2×SYBR FAST Universal ready mix (Invitrogen). All reactions were performed in triplicate, and the thermal cycling conditions were as follows: 2 min at 95° C., followed by 40 cycles of 95° C. for 20 s and 60° C. for 30 s in StepOnePlus (Applied Biosystems). The relative mRNA expression was calculated in accord to the Ct method. Forward and reverse primer sequences were the following: human GAPDH: [NT] (SEQ ID: 1) and [NT] (SEQ ID: 2); human SHP: [NT] (SEQ ID: 3) and [NT] (SEQ ID: 4); mouse GAPDH, [NT] (SEQ ID: 5) and [NT] (SEQ ID: 6); mouse SHP [NT] (SEQ ID: 7) and [NT] (SEQ ID: 8); mouse FXR: [NT] (SEQ ID: 9) and [NT] (SEQ ID: 10); mouse BSEP: [NT] (SEQ ID: 11) and [NT] (SEQ ID: 12). C57BL/6N male mice were from The Jackson's Laboratory. […] The general health of the animals was monitored daily by the Veterinarian in the animal facility. […]

liver BSEP mRNA = test: Liver BSEP mRNA expression in mice after administration of compound; format: in vivo, mouse; details: administered per os, 10 mg/kg daily for 3 days
Procedure: as §1

SHP mRNA = SHP mRNA expression in HepG2 cells (RT-PCR); format: cell-based, human
Procedure: RNA isolation and RT-PCR. HepG2 cells were plated at the density of 1×10^6 cells/flask in T25 flask. […] Total RNA was isolated from HepG2 cells or liver tissue using the TRIzol reagent according to the manufacturer's specifications (Invitrogen). One microgram of purified RNA was treated with DNase-I and reverse transcribed with QuantiTect Reverse Transcription Kit (Qiagen). For Real Time PCR, 10 ng template was dissolved in 25 μL containing 200 nmol/L of each primer and 12.5 μL of 2×SYBR FAST Universal ready mix (Invitrogen). All reactions were performed in triplicate, and the thermal cycling conditions were as follows: 2 min at 95° C., followed by 40 cycles of 95° C. for 20 s and 60° C. for 30 s in StepOnePlus (Applied Biosystems). The relative mRNA expression was calculated in accord to the Ct method. Forward and reverse primer sequences were the following: human GAPDH: [NT] (SEQ ID: 1) and [NT] (SEQ ID: 2); human SHP: [NT] (SEQ ID: 3) and [NT] (SEQ ID: 4); mouse GAPDH, [NT] (SEQ ID: 5) and [NT] (SEQ ID: 6); mouse SHP [NT] (SEQ ID: 7) and [NT] (SEQ ID: 8); mouse FXR: [NT] (SEQ ID: 9) and [NT] (SEQ ID: 10); mouse BSEP: [NT] (SEQ ID: 11) and [NT] (SEQ ID: 12).

[1] = Microsomal stability in mouse liver microsomes; format: in vitro ADME; details: male CD-1 mouse liver microsomes, 1 μM compound, 37° C.
Procedure: Male mouse (CD-1) liver microsomes (Sigma-Aldrich) were used. All incubations were performed in duplicate in a shaking water bath at 37° C. […] Aliquots were removed at 0, 5, 10, 20, 30, and 40 min after microsome addition and the reaction was stopped by adding 200 μL of ice-cold acetonitrile. After 2 h, the samples were centrifuged for 10 min at 10000 rpm, and the supernatants were transferred in matrix tubes for LC-MS/MS analysis. Propranolol, known as a high hepatic clearance drug in rodents, was used as a quality-control compound for the microsomal incubations. The slope of the linear regression of the curve obtained reporting the natural logarithm of compound area versus incubation time (−k) was used in the conversion to in vitro t1/2 values by t1/2=−ln(2)/k. In vitro intrinsic clearance (CLint expressed as μL/min/mg) was calculated according to the following formula: Clint=volume of reaction (μL)/t1/2 (min)/protein of liver microsomes (mg).

[2] = rats, oral administration; cited from earlier work
[3] = ascribed to the stilbene moiety; cited from earlier work

SMILES | liver SHP mRNA expression (liver SHP mRNA) | liver BSEP mRNA expression (liver BSEP mRNA) | SHP mRNA expression induction (SHP mRNA; 5 μM concentration, 18 h) [times] | SHP mRNA expression induction (SHP mRNA; reference compound at 10 μM concentration) [times] | Clint [1] [µL/min/mg] | t1/2 [1] [min] | intestinal absorption [2] [%] | terminal half-life [2] | UV light stability [3]
CC(C)c1onc(-c2c(Cl)cccc2Cl)c1COc1ccc(COc2ccc(C(=O)O)cc2)cc1 [BAR2109, 4-((4-((3-(2,6-dichlorophenyl)-5-isopropylisoxazol-4-yl)methoxy)benzyl)oxy)benzoic Acid] | inducing | inducing | 6.8 |  |  |  |  |  | 
CC(C)c1onc(-c2c(Cl)cccc2Cl)c1COc1ccc(COc2cccc(C(=O)O)c2)cc1 [BAR2123, 3-((4-((3-(2,6-dichlorophenyl)-5-isopropylisoxazol-4-yl)methoxy)benzyl)oxy)benzoic Acid] |  |  | 6.2 |  |  |  |  |  | 
CC(C)c1onc(-c2c(Cl)cccc2Cl)c1COc1ccc(/C=C/c2cccc(C(=O)O)c2)c(Cl)c1 [GW4064] |  |  |  | 4.2 | 56 | 41 | < 10 | short | UV light instability

Reference: patent US11332450B2, “Isoxazole as FXR receptor agonists” (Bar Pharmaceuticals Societa' A Responsabilita' Limitata, priority 2018, dated 2022)
